As a reminder, the Ki is a measure of affinity in units of concentration, obtained from inhibition or displacement. By EC50 is commonly meant the concentration that produces a half-maximal response.

The values that follow come from patent US7101878B1 (Agouron Pharmaceuticals, Inc., priority 1998, dated 2006).

One assay concerns the target TRH (Homo sapiens, UniProt P34981). The assay can be described thus: biochemical.
Assay [1] addresses Choline Acetyltransferase (Homo sapiens, UniProt P28329). The assay can be described thus: biochemical.
The target of a further assay is AT1 Angiotensin (Homo sapiens, UniProt P30556). The assay can be described thus: biochemical.
Another assay relates to rat mast cells. Nature of the assay: Selectivity: Basal Histamine Release (rat mast cells). The conditions noted are these: Mast cell, read-out: Basal Histamine Release (rat mast cells) EC50.
Another assay deals with MAO-A (Homo sapiens, UniProt P21397). The assay can be described thus: Selectivity: MAO-A.
The next assay has as its target AchE (Homo sapiens, UniProt P22303). The assay can be described thus: Selectivity: AchE.
Another assay deals with T1, rat GnRH receptor (Rattus norvegicus, UniProt P30969).
T1 sequence (P30969 1-327): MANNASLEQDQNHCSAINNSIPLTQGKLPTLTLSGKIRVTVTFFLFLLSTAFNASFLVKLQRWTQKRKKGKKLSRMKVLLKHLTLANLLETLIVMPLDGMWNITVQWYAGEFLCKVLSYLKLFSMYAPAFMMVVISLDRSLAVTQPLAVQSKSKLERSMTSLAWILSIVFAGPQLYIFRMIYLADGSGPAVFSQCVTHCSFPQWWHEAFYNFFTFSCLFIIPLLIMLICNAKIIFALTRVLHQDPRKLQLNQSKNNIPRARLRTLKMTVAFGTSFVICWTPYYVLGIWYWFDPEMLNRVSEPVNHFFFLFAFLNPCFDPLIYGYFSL
The assay can be described thus: Total inositol phosphates measurement, GGH3 cells. Format: cell-based. The conditions noted are these: PI (inositol phosphates). On the procedure: In another test, accumulation of total inositol phosphates may be measured by formic acid extraction from cells, followed by separation of the phosphates on Dowex columns. Cells are split using trypsin into two 12-well plates and pre-labeled with ^3H-myoinositol ([…]-2 mCi per mL) for 16-18 hours in inositol-free medium. The medium is then aspirated and the cells rinsed with either 1×HBSS, 20 mM HEPES (pH 7.5), or serum-free DMEM, 1×HBSS, 20 mM HEPES (pH 7.5) containing agonist, and 20 mM LiCl is then added and the cells are incubated for the desired time. The medium is aspirated and the reaction stopped by addition of ice-cold 10 mM formic acid, which also serves to extract cellular lipids. […] The columns are then washed with 10 mL of […] sodium formate and 5 mM borax, and total inositol phosphates are eluted with 4.5 mL 1M ammonium formate, 0.1M formic acid.
These cells have been extensively characterized previously (Kaiser et al., 1997). These cells were grown in low glucose Dulbecco's modified Eagle's medium (DMEM) containing: 100U/mL penicillin/streptomycin, 0.6 g/L G418 and 10% beat-inactivated fetal bovine serum
This cell line was provided by Dr. Stuart Sealfon, Mount Sinai Medical School New York, N.Y. These cells were grown in DMEM supplemented with 0.2 g/L G418 100 U/ml penicillin/streptomycin and 10% FBS. […]

Choline Acetyltransferase, sequence (P28329 whole entry): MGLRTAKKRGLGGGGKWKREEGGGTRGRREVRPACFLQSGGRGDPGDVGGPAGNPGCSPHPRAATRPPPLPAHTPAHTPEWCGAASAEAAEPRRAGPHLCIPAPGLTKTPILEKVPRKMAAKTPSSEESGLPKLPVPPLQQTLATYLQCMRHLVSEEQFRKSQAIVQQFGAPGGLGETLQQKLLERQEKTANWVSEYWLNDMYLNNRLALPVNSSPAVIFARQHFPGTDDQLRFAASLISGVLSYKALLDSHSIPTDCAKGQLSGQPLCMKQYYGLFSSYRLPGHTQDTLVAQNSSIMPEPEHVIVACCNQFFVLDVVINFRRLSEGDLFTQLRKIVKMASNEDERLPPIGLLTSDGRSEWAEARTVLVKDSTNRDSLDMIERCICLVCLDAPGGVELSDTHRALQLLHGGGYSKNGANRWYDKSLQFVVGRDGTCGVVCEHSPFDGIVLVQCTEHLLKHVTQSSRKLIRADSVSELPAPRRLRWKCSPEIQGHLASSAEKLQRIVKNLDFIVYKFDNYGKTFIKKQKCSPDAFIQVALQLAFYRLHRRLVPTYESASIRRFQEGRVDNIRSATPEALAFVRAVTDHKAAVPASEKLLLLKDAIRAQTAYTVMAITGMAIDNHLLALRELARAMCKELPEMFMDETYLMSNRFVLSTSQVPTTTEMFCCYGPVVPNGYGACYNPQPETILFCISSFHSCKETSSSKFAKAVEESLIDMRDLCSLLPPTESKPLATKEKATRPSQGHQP
AT1 Angiotensin, sequence (P30556 whole entry): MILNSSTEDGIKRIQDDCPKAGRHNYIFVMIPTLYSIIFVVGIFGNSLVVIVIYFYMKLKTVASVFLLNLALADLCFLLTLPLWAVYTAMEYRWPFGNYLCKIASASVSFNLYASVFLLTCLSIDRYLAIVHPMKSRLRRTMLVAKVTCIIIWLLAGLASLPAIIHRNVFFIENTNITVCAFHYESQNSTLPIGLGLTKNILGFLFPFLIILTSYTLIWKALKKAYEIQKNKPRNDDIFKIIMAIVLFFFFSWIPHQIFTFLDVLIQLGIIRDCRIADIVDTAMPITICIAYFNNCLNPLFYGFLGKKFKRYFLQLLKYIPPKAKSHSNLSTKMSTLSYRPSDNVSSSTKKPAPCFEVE
TRH, sequence (P34981 whole entry): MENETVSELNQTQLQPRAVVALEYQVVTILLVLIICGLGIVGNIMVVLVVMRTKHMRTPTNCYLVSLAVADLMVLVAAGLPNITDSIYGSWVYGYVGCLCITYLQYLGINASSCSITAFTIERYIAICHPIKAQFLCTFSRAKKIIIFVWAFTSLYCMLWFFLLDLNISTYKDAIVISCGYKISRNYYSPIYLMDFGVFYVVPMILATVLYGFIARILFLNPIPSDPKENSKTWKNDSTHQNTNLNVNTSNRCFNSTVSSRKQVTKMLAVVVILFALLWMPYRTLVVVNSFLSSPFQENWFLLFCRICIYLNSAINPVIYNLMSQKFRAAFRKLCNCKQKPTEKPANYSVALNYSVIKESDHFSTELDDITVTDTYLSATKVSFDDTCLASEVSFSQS
AchE, sequence (P22303 32-614): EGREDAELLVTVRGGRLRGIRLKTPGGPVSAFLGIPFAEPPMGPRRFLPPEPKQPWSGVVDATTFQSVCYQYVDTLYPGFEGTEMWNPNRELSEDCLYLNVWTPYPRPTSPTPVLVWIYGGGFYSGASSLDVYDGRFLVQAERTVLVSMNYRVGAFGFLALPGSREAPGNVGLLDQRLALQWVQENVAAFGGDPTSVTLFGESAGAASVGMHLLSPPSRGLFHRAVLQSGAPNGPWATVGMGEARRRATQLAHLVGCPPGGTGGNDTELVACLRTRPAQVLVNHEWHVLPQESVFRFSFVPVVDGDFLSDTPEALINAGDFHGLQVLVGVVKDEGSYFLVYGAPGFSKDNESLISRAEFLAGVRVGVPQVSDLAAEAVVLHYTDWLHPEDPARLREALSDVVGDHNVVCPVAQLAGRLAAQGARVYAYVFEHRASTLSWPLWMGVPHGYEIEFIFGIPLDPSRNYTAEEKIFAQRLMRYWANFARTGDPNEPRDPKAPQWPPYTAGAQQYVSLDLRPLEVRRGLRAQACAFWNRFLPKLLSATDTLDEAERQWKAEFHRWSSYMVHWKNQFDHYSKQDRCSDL
MAO-A, sequence (P21397 whole entry, species assumed): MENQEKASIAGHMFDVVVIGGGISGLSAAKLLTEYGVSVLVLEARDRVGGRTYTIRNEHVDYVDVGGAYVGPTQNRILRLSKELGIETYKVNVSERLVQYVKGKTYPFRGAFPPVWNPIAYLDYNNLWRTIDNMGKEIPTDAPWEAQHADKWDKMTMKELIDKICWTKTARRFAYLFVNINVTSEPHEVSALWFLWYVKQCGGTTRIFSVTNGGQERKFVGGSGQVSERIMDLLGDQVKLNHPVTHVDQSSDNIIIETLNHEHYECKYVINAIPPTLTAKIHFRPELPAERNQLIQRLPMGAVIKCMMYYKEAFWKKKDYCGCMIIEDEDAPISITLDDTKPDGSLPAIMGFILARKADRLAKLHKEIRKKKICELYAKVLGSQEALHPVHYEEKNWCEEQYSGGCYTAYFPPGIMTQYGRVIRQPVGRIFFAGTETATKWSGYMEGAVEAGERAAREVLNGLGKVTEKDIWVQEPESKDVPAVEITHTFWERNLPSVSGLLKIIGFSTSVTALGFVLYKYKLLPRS

Consider `COc1cccc(OC)c1NC(=O)c1ccc(Cc2cc3c(cc2C)C(C)(C)CCC3(C)C)o1` [Compound 20], for which the Ki at TRH is greater than 1000 nM; in assay [1], greater than 1000 nM; at AT1 Angiotensin it was 3000 to 5000 nM; at MAO-A, greater than 1000 nM; at AchE, greater than 1000 nM. Moreover, in the assay on rat mast cells, the EC50 was greater than 10000 nM.
As to `Cc1cc2c(cc1Cc1ccc(C(=O)NCc3cccc(CNc4ccnc(NC[C@@H]5CCCO5)n4)c3)o1)C(C)(C)CCC2(C)C` [Compound 136], the Kb at rat GnRH receptor stood at 6.3 nM.
